# Assay results from patent US20020137929A1, “1 - (3-heterocyclylphenyl) isothiourea, -isourea, -guanidine and -amidine herbicidal agents” (Intellectual Property Department, BASF Aktiengesellschaft, priority 1998, published 2002).
# Experiments:
# ABUTH (Velvetleaf) [1] = assay: Preemergence herbicidal evaluation; type: in vivo, Abutilon theophrasti; details: preemergence, rated 4-5 weeks after treatment, 0-9 scale
# How it was run: (§1)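 Seeds were planted in potting soil in cups, then sprayed preemergence with the test compound in aqueous acetone at about 0.0156 to 0.500 kg per hectare. Cups were kept under greenhouse conditions and visually rated 4–5 weeks after treatment on a 0–9 scale against an untreated control.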
# CYPIR (Rice Flatsedge) = assay: Postemergence weed control under flooded paddy conditions; type: in vivo, Cyperus iria; details: postemergence weeds, rated 3 to 4 weeks after treatment
# How it was run: (§2)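 Weeds 3 to 5 cm tall and rice seedlings at the 1.5 to 2.5 leaf stage were flooded, with water held 1.5 to 3 cm above the soil. Compounds in 50/50 v/v aqueous/acetone went into the flood water at about 0.0313 to 0.500 kg/ha. Visual 0-9 ratings versus control were made 3 to 4 weeks later.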
# [2] = tested on: TRZAWR (Wheat, Winter, cv Riband); assay: Postemergence herbicidal evaluation; type: in vivo, Triticum aestivum; details: postemergence
# How it was run: (§3)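 Two-week-old seedlings sprayed with compound in 50/50 acetone/water plus 0.5% TWEEN 20, at about 0.0156 to 0.500 kg/ha, nozzle at 40 psi. Kept in greenhouse; rated visually 4-5 weeks after treatment on a 0-9 scale versus control, repeat tests averaged.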
# [3] = tested on: GLXMAW (Soybean, Williams); assay: Postemergence herbicidal evaluation; type: in vivo, Glycine max, (L.) Merr. cv Williams; details: postemergence
# How it was run: as §3
# ABUTH (Velvetleaf) [4] = assay: Postemergence herbicidal evaluation; type: in vivo, Abutilon theophrasti; details: postemergence
# How it was run: as §3
# AMBEL (Ragweed, Common) = assay: Postemergence herbicidal evaluation; type: in vivo, Ambrosia artemisifolia; details: postemergence
# How it was run: as §3
# [5] = tested on: SAGPY (Arrowhead (Pygmaea)); assay: Preemergence weed control under flooded paddy conditions; type: in vivo, Sagittaria pygmaea; details: rated 3-4 weeks after treatment
# How it was run: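 First, seeds or propagules go into the top 0.5 cm of silt loam; next, water is held 1.5 to 3 cm over the soil; then compound (50/50 acetone/water) is pipetted into it at about 0.0313 to 0.500 kg/ha; finally plants are rated visually 0-9 after three to four weeks.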
# SETVI (Foxtail, Green) [6] = assay: Preemergence herbicidal evaluation; type: in vivo, Setaria viridis; details: preemergence, rated 4-5 weeks after treatment, 0-9 scale
# How it was run: as §1
# ECHCG (Barnyardgrass) = assay: Postemergence herbicidal evaluation; type: in vivo, Echinochloa crus-galli; details: postemergence
# How it was run: as §3
# [7] = tested on: SAGPY (Arrowhead (Pygmaea)); assay: Postemergence weed control under flooded paddy conditions; type: in vivo, Sagittaria pygmaea; details: postemergence weeds, rated 3 to 4 weeks after treatment
# How it was run: as §2
# ORYSAT (Rice, Tebonnet) = assay: Postemergence herbicidal evaluation; type: in vivo, Oryza sativa, (L.) Tebonnet; details: postemergence
# How it was run: as §3
# SETVI (Foxtail, Green) [8] = assay: Postemergence herbicidal evaluation; type: in vivo, Setaria viridis; details: postemergence
# How it was run: as §3
# CASOB (Sicklepod) = assay: Preemergence herbicidal evaluation; type: in vivo, Cassia obtusifolia; details: preemergence, rated 4-5 weeks after treatment, 0-9 scale
# How it was run: as §1
compound,measurement,setting,value
"COC(=O)C1(N2C(=O)CSC2=Nc2cc(-n3c(=O)cc(C(F)(F)F)n(C)c3=O)c(F)cc2Cl)CCCCC1 [Compound 81, Methyl 1-{2-{{2-chloro-5-[3,6-dihydro-3-methyl-2,6-dioxo-4-(trifluoromethyl)-1(2H)-pyrimidinyl]-4-fluorophenyl}imino}-4-oxo-3-thiazolidinyl}-cyclohexanecarboxylate]",ABUTH rating,ABUTH (Velvetleaf) [1]; 0.0313 kg/ha,9.0
same,ABUTH rating,ABUTH (Velvetleaf) [1]; 0.0625 kg/ha,9.0
same,ABUTH rating,ABUTH (Velvetleaf) [1]; 0.1250 kg/ha,9.0
same,ABUTH rating,ABUTH (Velvetleaf) [1]; 0.2500 kg/ha,9.0
same,Herbicidal rating CYPIR,CYPIR (Rice Flatsedge); Rate 0.0625 kg/ha,4.0
same,Herbicidal rating CYPIR,CYPIR (Rice Flatsedge); Rate 0.1250 kg/ha,5.0
same,Herbicidal rating CYPIR,CYPIR (Rice Flatsedge); Rate 0.2500 kg/ha,5.0
same,TRZAWR herbicidal rating,[2]; rate 0.0158 kg/ha,4.5
same,TRZAWR herbicidal rating,[2]; rate 0.0315 kg/ha,5.0
same,TRZAWR herbicidal rating,[2]; rate 0.0630 kg/ha,6.0
same,GLXMAW herbicidal rating,[3]; rate 0.0158 kg/ha,6.5
same,GLXMAW herbicidal rating,[3]; rate 0.0315 kg/ha,6.5
same,GLXMAW herbicidal rating,[3]; rate 0.0630 kg/ha,6.5
same,ABUTH herbicidal rating,ABUTH (Velvetleaf) [4]; rate 0.0158 kg/ha,7.0
same,ABUTH herbicidal rating,ABUTH (Velvetleaf) [4]; rate 0.0315 kg/ha,7.0
same,ABUTH herbicidal rating,ABUTH (Velvetleaf) [4]; rate 0.0630 kg/ha,9.0
same,AMBEL herbicidal rating,"AMBEL (Ragweed, Common); rate 0.0158 kg/ha",9.0
same,AMBEL herbicidal rating,"AMBEL (Ragweed, Common); rate 0.0315 kg/ha",9.0
same,AMBEL herbicidal rating,"AMBEL (Ragweed, Common); rate 0.0630 kg/ha",9.0
same,SAGPY herbicidal effect rating,[5]; 0.0625 kg/ha,0.0
same,SAGPY herbicidal effect rating,[5]; 0.1250 kg/ha,0.0
same,SAGPY herbicidal effect rating,[5]; 0.2500 kg/ha,0.0
same,SETVI rating,"SETVI (Foxtail, Green) [6]; 0.0313 kg/ha",0.0
same,SETVI rating,"SETVI (Foxtail, Green) [6]; 0.0625 kg/ha",1.0
same,SETVI rating,"SETVI (Foxtail, Green) [6]; 0.1250 kg/ha",0.0
same,SETVI rating,"SETVI (Foxtail, Green) [6]; 0.2500 kg/ha",3.0
same,ECHCG herbicidal rating,ECHCG (Barnyardgrass); rate 0.0158 kg/ha,1.0
same,ECHCG herbicidal rating,ECHCG (Barnyardgrass); rate 0.0315 kg/ha,2.0
same,ECHCG herbicidal rating,ECHCG (Barnyardgrass); rate 0.0630 kg/ha,6.0
same,Herbicidal rating SAGPY,[7]; Rate 0.0625 kg/ha,0.0
same,Herbicidal rating SAGPY,[7]; Rate 0.1250 kg/ha,0.0
same,Herbicidal rating SAGPY,[7]; Rate 0.2500 kg/ha,0.0
same,ORYSAT herbicidal rating,"ORYSAT (Rice, Tebonnet); rate 0.0158 kg/ha",4.5
same,ORYSAT herbicidal rating,"ORYSAT (Rice, Tebonnet); rate 0.0315 kg/ha",4.5
same,ORYSAT herbicidal rating,"ORYSAT (Rice, Tebonnet); rate 0.0630 kg/ha",5.5
same,SETVI herbicidal rating,"SETVI (Foxtail, Green) [8]; rate 0.0158 kg/ha",1.0
same,SETVI herbicidal rating,"SETVI (Foxtail, Green) [8]; rate 0.0315 kg/ha",1.0
same,SETVI herbicidal rating,"SETVI (Foxtail, Green) [8]; rate 0.0630 kg/ha",9.0
same,CASOB rating,CASOB (Sicklepod); 0.0313 kg/ha,0.0
same,CASOB rating,CASOB (Sicklepod); 0.1250 kg/ha,0.0
same,CASOB rating,CASOB (Sicklepod); 0.2500 kg/ha,0.0
"CCOC(=O)CN1C(=O)C(CC(=O)OCCF)SC1=Nc1cc(-n2c(=O)cc(C(F)(F)F)n(C)c2=O)c(F)cc1Cl (centres unmarked) [Compound 82, 2-{{2-Chloro-5-[3,6-dihydro-3-methyl-2,6-dioxo-4-(trifluoromethyl)-1(2H)-pyrimidinyl]-4-fluoro-phenyl}imino}-4-oxo-3,5-thiazolidinediacetic acid, 3-ethyl 2-fluoroethyl ester]",ABUTH rating,ABUTH (Velvetleaf) [1]; 0.0156 kg/ha,3.0
same,ABUTH rating,ABUTH (Velvetleaf) [1]; 0.0313 kg/ha,9.0
same,ABUTH rating,ABUTH (Velvetleaf) [1]; 0.0625 kg/ha,9.0
same,ABUTH rating,ABUTH (Velvetleaf) [1]; 0.1250 kg/ha,9.0
same,ABUTH rating,ABUTH (Velvetleaf) [1]; 0.2500 kg/ha,9.0
same,Herbicidal rating CYPIR,CYPIR (Rice Flatsedge); Rate 0.0313 kg/ha,0.0
same,Herbicidal rating CYPIR,CYPIR (Rice Flatsedge); Rate 0.0625 kg/ha,0.0
same,Herbicidal rating CYPIR,CYPIR (Rice Flatsedge); Rate 0.1250 kg/ha,3.0
same,Herbicidal rating CYPIR,CYPIR (Rice Flatsedge); Rate 0.2500 kg/ha,3.0
same,TRZAWR herbicidal rating,[2]; rate 0.0158 kg/ha,7.5
same,TRZAWR herbicidal rating,[2]; rate 0.0315 kg/ha,7.5
same,TRZAWR herbicidal rating,[2]; rate 0.0630 kg/ha,8.5
same,GLXMAW herbicidal rating,[3]; rate 0.0158 kg/ha,8.5
same,GLXMAW herbicidal rating,[3]; rate 0.0315 kg/ha,9.0
same,GLXMAW herbicidal rating,[3]; rate 0.0630 kg/ha,9.0
same,ABUTH herbicidal rating,ABUTH (Velvetleaf) [4]; rate 0.0158 kg/ha,9.0
same,ABUTH herbicidal rating,ABUTH (Velvetleaf) [4]; rate 0.0315 kg/ha,9.0
same,ABUTH herbicidal rating,ABUTH (Velvetleaf) [4]; rate 0.0630 kg/ha,9.0
same,AMBEL herbicidal rating,"AMBEL (Ragweed, Common); rate 0.0158 kg/ha",9.0
same,AMBEL herbicidal rating,"AMBEL (Ragweed, Common); rate 0.0315 kg/ha",9.0
same,AMBEL herbicidal rating,"AMBEL (Ragweed, Common); rate 0.0630 kg/ha",9.0
same,SAGPY herbicidal effect rating,[5]; 0.0313 kg/ha,4.0
same,SAGPY herbicidal effect rating,[5]; 0.0625 kg/ha,4.0
same,SAGPY herbicidal effect rating,[5]; 0.1250 kg/ha,4.0
same,SAGPY herbicidal effect rating,[5]; 0.2500 kg/ha,7.0
same,SETVI rating,"SETVI (Foxtail, Green) [6]; 0.0156 kg/ha",0.0
same,SETVI rating,"SETVI (Foxtail, Green) [6]; 0.0313 kg/ha",0.0
same,SETVI rating,"SETVI (Foxtail, Green) [6]; 0.0625 kg/ha",7.0
same,SETVI rating,"SETVI (Foxtail, Green) [6]; 0.1250 kg/ha",9.0
same,SETVI rating,"SETVI (Foxtail, Green) [6]; 0.2500 kg/ha",9.0
same,ECHCG herbicidal rating,ECHCG (Barnyardgrass); rate 0.0158 kg/ha,9.0
same,ECHCG herbicidal rating,ECHCG (Barnyardgrass); rate 0.0315 kg/ha,9.0
same,ECHCG herbicidal rating,ECHCG (Barnyardgrass); rate 0.0630 kg/ha,9.0
same,Herbicidal rating SAGPY,[7]; Rate 0.0313 kg/ha,4.0
same,Herbicidal rating SAGPY,[7]; Rate 0.0625 kg/ha,4.0
same,Herbicidal rating SAGPY,[7]; Rate 0.1250 kg/ha,4.0
same,Herbicidal rating SAGPY,[7]; Rate 0.2500 kg/ha,7.0
same,ORYSAT herbicidal rating,"ORYSAT (Rice, Tebonnet); rate 0.0158 kg/ha",3.0
same,ORYSAT herbicidal rating,"ORYSAT (Rice, Tebonnet); rate 0.0315 kg/ha",3.0
same,ORYSAT herbicidal rating,"ORYSAT (Rice, Tebonnet); rate 0.0630 kg/ha",8.5
same,SETVI herbicidal rating,"SETVI (Foxtail, Green) [8]; rate 0.0158 kg/ha",9.0
same,SETVI herbicidal rating,"SETVI (Foxtail, Green) [8]; rate 0.0315 kg/ha",9.0
same,SETVI herbicidal rating,"SETVI (Foxtail, Green) [8]; rate 0.0630 kg/ha",9.0
same,CASOB rating,CASOB (Sicklepod); 0.0156 kg/ha,0.0
same,CASOB rating,CASOB (Sicklepod); 0.0313 kg/ha,0.0
same,CASOB rating,CASOB (Sicklepod); 0.0625 kg/ha,3.0
same,CASOB rating,CASOB (Sicklepod); 0.1250 kg/ha,9.0
same,CASOB rating,CASOB (Sicklepod); 0.2500 kg/ha,9.0
